Source: publication PMC4380750 (Bioorganic & medicinal chemistry, 2015)

Experiments:
MOR [1] = target: T1, MOR (Mus musculus, UniProt P42866); experiment: biochemical; settings: for less potent than naltrexone in the MOR [35S]GTPγS binding assay: EC50 compared with naltrexone; for Emax: read-out: MOR [35S]GTPγS Binding %Emax of DAMGO
KOR [2] = target: KOR (Mus musculus, UniProt P33534); experiment: KOR [35S]GTPγS binding functional assay; assay type: biochemical
DOR [3] = target: T2, DOR (Mus musculus, UniProt P32300); experiment: DOR [35S]GTPγS binding functional assay; assay type: biochemical; settings: vs naltrexone
hMOR = hMOR (Homo sapiens, UniProt P35372); experiment: Ca2+ flux assay in Gαqi5 transfected hMOR-CHO cells; assay type: cell-based; settings: for agonism, increase of intracellular Ca2+ level: agonism study, compared to DAMGO
Swiss-Webster mice [4] = experiment: Opioid withdrawal assays in chronic morphine-pelleted mice; assay type: in vivo, mouse
DOR [5] = target: T2, DOR; experiment: Radioligand competition binding assay, [3H]naltrindole, mDOR-CHO cell membranes; settings: ratio of Ki values, MOR vs DOR
KOR [6] = settings: electrically stimulated guinea pig ileal longitudinal muscle; cited from earlier work
KOR [7] = settings: binding affinity; cited from earlier work
MOR [8] = target: T1, MOR; assay type: binding
Swiss-Webster mice [9] = experiment: Warm-water tail immersion assay, agonism study; assay type: in vivo, mouse
[10] = 1 mg/kg s.c., morphine-pelleted mice, counted over 20 min

Chain of hMOR (P35372 whole entry): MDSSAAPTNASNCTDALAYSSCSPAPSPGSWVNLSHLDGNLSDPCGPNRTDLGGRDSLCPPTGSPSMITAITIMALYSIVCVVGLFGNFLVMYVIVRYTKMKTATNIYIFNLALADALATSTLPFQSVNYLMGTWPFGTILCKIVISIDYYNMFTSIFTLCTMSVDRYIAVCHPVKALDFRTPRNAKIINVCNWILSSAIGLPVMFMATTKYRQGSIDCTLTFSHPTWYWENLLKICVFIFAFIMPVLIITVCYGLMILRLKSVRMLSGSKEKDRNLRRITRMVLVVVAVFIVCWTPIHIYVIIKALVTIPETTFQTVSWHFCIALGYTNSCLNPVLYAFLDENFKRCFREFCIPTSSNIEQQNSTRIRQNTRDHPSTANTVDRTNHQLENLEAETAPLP
T1 sequence (P42866 whole entry): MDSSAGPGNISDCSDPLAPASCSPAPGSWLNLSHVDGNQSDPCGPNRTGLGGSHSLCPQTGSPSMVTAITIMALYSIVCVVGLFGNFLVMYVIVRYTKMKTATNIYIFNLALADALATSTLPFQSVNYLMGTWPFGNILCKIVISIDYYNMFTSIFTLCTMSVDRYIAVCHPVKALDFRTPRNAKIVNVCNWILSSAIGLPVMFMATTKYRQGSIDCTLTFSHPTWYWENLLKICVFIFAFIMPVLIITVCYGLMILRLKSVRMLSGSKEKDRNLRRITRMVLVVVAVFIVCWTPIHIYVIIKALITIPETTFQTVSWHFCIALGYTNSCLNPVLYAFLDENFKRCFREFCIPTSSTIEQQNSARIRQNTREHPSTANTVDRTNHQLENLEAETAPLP
T2 sequence (P32300 whole entry): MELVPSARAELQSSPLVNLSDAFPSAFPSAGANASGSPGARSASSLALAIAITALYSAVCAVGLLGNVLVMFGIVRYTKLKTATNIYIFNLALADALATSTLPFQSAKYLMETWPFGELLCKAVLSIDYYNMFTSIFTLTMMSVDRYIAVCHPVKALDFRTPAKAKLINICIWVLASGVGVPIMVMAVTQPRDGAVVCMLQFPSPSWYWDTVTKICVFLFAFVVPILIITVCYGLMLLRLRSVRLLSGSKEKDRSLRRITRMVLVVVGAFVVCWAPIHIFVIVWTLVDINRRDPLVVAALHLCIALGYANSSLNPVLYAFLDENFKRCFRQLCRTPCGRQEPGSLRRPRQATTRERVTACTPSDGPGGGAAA
Chain of KOR (Mus musculus, UniProt P33534) (P33534 whole entry): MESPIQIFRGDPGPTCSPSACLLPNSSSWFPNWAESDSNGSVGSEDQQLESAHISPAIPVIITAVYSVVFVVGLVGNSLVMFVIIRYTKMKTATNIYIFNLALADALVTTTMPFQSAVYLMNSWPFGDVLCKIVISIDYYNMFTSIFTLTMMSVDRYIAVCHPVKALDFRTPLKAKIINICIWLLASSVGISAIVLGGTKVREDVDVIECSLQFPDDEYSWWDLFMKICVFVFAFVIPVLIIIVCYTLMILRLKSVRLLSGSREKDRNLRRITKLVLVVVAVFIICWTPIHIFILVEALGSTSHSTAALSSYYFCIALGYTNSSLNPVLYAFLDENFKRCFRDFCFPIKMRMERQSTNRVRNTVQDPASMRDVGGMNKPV

O=C(N[C@H]1CC[C@@]2(O)[C@H]3Cc4ccc(O)c5c4[C@@]2(CCN3CC2CC2)[C@H]1O5)c1cc2cc([N+](=O)[O-])ccc2cn1 [Compound 11, 17-Cyclopropylmethyl-3,14β-dihydroxy-4,5α-epoxy-6α-(6-nitroisoquinoline-3-carboxamido)morphinan]
less potent than naltrexone in the MOR [35S]GTPγS binding assay (MOR [1]): ≥ 200 fold
KOR [35S]GTPγS potency, lower than that of NAQ (KOR [2]; vs NAQ): ~6 fold
KOR [35S]GTPγS potency, less potent than naltrexone (KOR [2]; vs naltrexone): ~80 fold
DOR [35S]GTPγS potency, less potent compared to naltrexone (DOR [3]): 7- to 25 fold
agonism, increase of intracellular Ca2+ level (hMOR): no apparent agonism
withdrawal symptoms in placebo-pelleted mice (Swiss-Webster mice [4]; 30 mg/kg s.c., placebo-pelleted mice): did not induce any significant withdrawal symptoms
escape jumps in morphine-pelleted mice, dose dependence (Swiss-Webster mice [4]; s.c., doses up to 100 mg/kg, plateau at 100 mg/kg): did not precipitate significant jumps in morphine-pelleted mice until 30 mg/kg
wet-dog shakes in morphine-pelleted mice compared to naltrexone (Swiss-Webster mice [4]; s.c., doses up to 100 mg/kg, vs naltrexone 1 mg/kg): significantly less wet-dog shakes

O=C(CCc1cc2ccccc2cn1)N[C@H]1CC[C@@]2(O)[C@H]3Cc4ccc(O)c5c4[C@@]2(CCN3CC2CC2)[C@H]1O5 [Compound 2, 17-Cyclopropylmethyl-3,14β-dihydroxy-4,5α-epoxy-6α-[3-(isoquinolin-3-yl)propanamido)morphinan]
Emax (MOR [1]): 27.4 ± 0.35%

COc1cc2cnc(C(=O)N[C@H]3CC[C@@]4(O)[C@H]5Cc6ccc(O)c7c6[C@@]4(CCN5CC4CC4)[C@H]3O7)cc2cc1OC [Compound 14, 17-Cyclopropylmethyl-3,14β-dihydroxy-4,5α-epoxy-6α-(6,7-dimethoxyisoquinoline-3-carboxamido)morphinan]
less potent than naltrexone in the MOR [35S]GTPγS binding assay (MOR [1]): ≥ 200 fold

CN1Cc2ccccc2C[C@H]1C(=O)N[C@H]1CC[C@@]2(O)[C@H]3Cc4ccc(O)c5c4[C@@]2(CCN3CC2CC2)[C@H]1O5 [Compound 15, 17-Cyclopropylmethyl-3,14β-dihydroxy-4,5α-epoxy-6α-[(S)-(2-methyl-1,2,3,4-tetrahydroisoquinoline-3-carboxamido)]morphinan]
Emax (MOR [1]): 24.8 ± 1.3%

CN(C)c1ccc2cc(C(=O)N[C@H]3CC[C@@]4(O)[C@H]5Cc6ccc(O)c7c6[C@@]4(CCN5CC4CC4)[C@H]3O7)ncc2c1 [Compound 13, 17-Cyclopropylmethyl-3,14β-dihydroxy-4,5α-epoxy-6α-(7-dimethylaminoisoquinoline-3-carboxamido)morphinan]
Selectivity δ/µ (DOR [5]): > 15

O=C(CNC(=O)c1cc2ccccc2cn1)N[C@H]1CC[C@@]2(O)[C@H]3Cc4ccc(O)c5c4[C@@]2(CCN3CC2CC2)[C@H]1O5 [Compound 3, 17-Cyclopropylmethyl-3,14β-dihydroxy-4,5α-epoxy-6α-[2-(isoquinoline-3-carboxamido)acetamido}morphinan]
Emax (MOR [1]): < 15%

O=C(N[C@H]1CC[C@@]2(O)[C@H]3Cc4ccc(O)c5c4[C@@]2(CCN3CC2CC2)[C@H]1O5)c1cc2ccc([N+](=O)[O-])cc2cn1 [Compound 12, 17-Cyclopropylmethyl-3,14β-dihydroxy-4,5α-epoxy-6α-(7-nitroisoquinoline-3-carboxamido)morphinan]
less potent than naltrexone in the MOR [35S]GTPγS binding assay (MOR [1]): ≥ 200 fold

Cc1nc(C(=O)N[C@H]2CC[C@@]3(O)[C@H]4Cc5ccc(O)c6c5[C@@]3(CCN4CC3CC3)[C@H]2O6)cc2ccccc12 [Compound 10, 17-Cyclopropylmethyl-3,14β-dihydroxy-4,5α-epoxy-6α-(1-methylisoquinolin-3-carboxamido)morphinan]
Emax (MOR [1]): 22.2 ± 0.4%

O=C(N[C@H]1CC[C@@]2(O)[C@H]3Cc4ccc(O)c5c4[C@@]2(CCN3CC2CC2)[C@H]1O5)c1nc(Cl)c2ccccc2c1O [Compound 5, 17-Cyclopropylmethyl-3,14β-dihydroxy-4,5α-epoxy-6α-(1-chloro-4-hydroxyisoquinoline-3-carboxamido)morphinan]
Selectivity δ/µ (DOR [5]): > 15
Emax (MOR [1]): 19.8 ± 0.8%

NC(N)=Nc1ccc2c3c([nH]c2c1)[C@@H]1Oc2c(O)ccc4c2[C@@]12CCN(CC1CC1)[C@H](C4)[C@]2(O)C3 [6’-GNTI]
functional activity at KOR (KOR [6]): KOR full agonist

O=C(N[C@H]1CC[C@@]2(O)[C@H]3Cc4ccc(O)c5c4[C@@]2(CCN3CC2CC2)[C@H]1O5)c1ncc2ccccc2c1O [Compound 6, 17-Cyclopropylmethyl-3,14β-dihydroxy-4,5α-epoxy-6α-(4-hydroxyisoquinoline-3-carboxamido)morphinan]
Emax (MOR [1]): 20.5 ± 0.9%

O=C1CC[C@@]2(O)[C@H]3Cc4ccc(O)c5c4[C@@]2(CCN3CC2CC2)[C@H]1O5 [NTX, naltrexone, reference compound]
escape jumps (Swiss-Webster mice [4]; [10]): 30.0 ± 12.1 times
wet-dog shakes (Swiss-Webster mice [4]; [10]): 14.8 ± 2.2 times

O=C(N[C@H]1CC[C@@]2(O)[C@H]3Cc4ccc(O)c5c4[C@@]2(CCN3CC2CC2)[C@H]1O5)c1cc2ccccc2cn1 [NAQ, 17-cyclopropylmethyl-3,14β-dihydroxy-4,5α-epoxy-6α-(isoquinoline-3′-carboxamido)morphinan, reference compound]
DOR [35S]GTPγS potency, less potent compared to naltrexone (DOR [3]): 7- to 25 fold

O=C(N[C@H]1CC[C@@]2(O)[C@H]3Cc4ccc(O)c5c4[C@@]2(CCN3CC2CC2)[C@H]1O5)c1ncc2ccccc2n1 [Compound 7, 17-Cyclopropylmethyl-3,14β-dihydroxy-4,5α-epoxy-6α-(4-quinazoline-2-carboxamido)morphinan]
Emax (MOR [1]): 21.6 ± 0.8%

O=C(Cc1cc2ccccc2cn1)N[C@H]1CC[C@@]2(O)[C@H]3Cc4ccc(O)c5c4[C@@]2(CCN3CC2CC2)[C@H]1O5 [Compound 1, 17-Cyclopropylmethyl-3,14β-dihydroxy-4,5α-epoxy-6α-[2-(isoquinolin-3-yl)acetamido)morphinan]
Emax (MOR [1]): 18.6 ± 1.1%

NC(N)=Nc1ccc2[nH]c3c(c2c1)C[C@@]1(O)[C@H]2Cc4ccc(O)c5c4[C@@]1(CCN2CC1CC1)[C@H]3O5 [5’-GNTI, 5’-guanidinonaltrindole]
5’-GNTI more potent than 6’-GNTI at the KOR (KOR [7]): 8 fold
functional activity at KOR (KOR [6]): KOR antagonist

COc1c(C(=O)N[C@H]2CC[C@@]3(O)[C@H]4Cc5ccc(O)c6c5[C@@]3(CCN4CC3CC3)[C@H]2O6)nc(Cl)c2ccccc12 [Compound 4, 17-Cyclopropylmethyl-3,14β-dihydroxy-4,5α-epoxy-6α-(1-chloro-4-methoxyisoquinoline-3-carboxamido)morphinan]
4 more potent than 11 in the radioligand competition binding assay (MOR [8]): about 10 fold
difference between the potencies of 4 and morphine in the MOR [35S]GTPγS binding assay (MOR [1]): ~70 fold
Emax (KOR [2]; read-out: KOR [35S]GTPγS Binding % Emax of U50,488): 7.1 ± 0.5%
DOR [35S]GTPγS potency, less potent compared to naltrexone (DOR [3]): 7- to 25 fold
% MPE, intrinsic antinociceptive effect (Swiss-Webster mice [9]; 10 mg/kg s.c., 20 min after injection, mice, 56 °C): full agonist
difference between the potencies of 4 and morphine in the tail immersion assay (Swiss-Webster mice [9]; vs morphine): ~9 fold
agonism, increase of intracellular Ca2+ level (hMOR): did not show any significant agonist activity
higher potency of 4 to 11 in Ca2+ flux antagonism study (hMOR; vs compound 11): 100 fold

N#Cc1nc(C(=O)N[C@H]2CC[C@@]3(O)[C@H]4Cc5ccc(O)c6c5[C@@]3(CCN4CC3CC3)[C@H]2O6)cc2ccccc12 [Compound 9, 17-Cyclopropylmethyl-3,14β-dihydroxy-4,5α-epoxy-6α-(1-cyanoisoquinoline-3-carboxamido)morphinan]
Emax (MOR [1]): 37.5 ± 0.7%
